Results reported in BindingDB's records for doi:10.1124/jpet.102.045674 (Pudue Pharma Discovery Research, 2003).

Assays:
[1] = biological target: Amine oxidase [flavin-containing] B (Rattus norvegicus, UniProt P19643)
Substance-P receptor = Substance-P receptor (Rattus norvegicus, UniProt P14600)
[2] = biological target: Nitric oxide synthase, brain (Rattus norvegicus, UniProt P29476)
[3] = biological target: Sodium-dependent dopamine transporter (Rattus norvegicus, UniProt P23977)
[4] = biological target: Gamma-aminobutyric acid (GABA) B receptor 1 (Rattus norvegicus, UniProt Q6MFX8)
[5] = biological target: Alpha-1A adrenergic receptor (Rattus norvegicus, UniProt P43140)
[6] = biological target: ATP-sensitive inward rectifier potassium channel 1 (Rattus norvegicus, UniProt P35560)
[7] = biological target: Gamma-aminobutyric acid receptor subunit alpha-1 (Rattus norvegicus, UniProt P62813)
[8] = biological target: Alpha-2C adrenergic receptor (Rattus norvegicus, UniProt P22086)
[9] = biological target: Type-1 angiotensin II receptor A (Rattus norvegicus, UniProt P25095)
[10] = biological target: Type-2 angiotensin II receptor (Rattus norvegicus, UniProt P35351)
Type-2 angiotensin II receptor, sequence (P35351 whole entry): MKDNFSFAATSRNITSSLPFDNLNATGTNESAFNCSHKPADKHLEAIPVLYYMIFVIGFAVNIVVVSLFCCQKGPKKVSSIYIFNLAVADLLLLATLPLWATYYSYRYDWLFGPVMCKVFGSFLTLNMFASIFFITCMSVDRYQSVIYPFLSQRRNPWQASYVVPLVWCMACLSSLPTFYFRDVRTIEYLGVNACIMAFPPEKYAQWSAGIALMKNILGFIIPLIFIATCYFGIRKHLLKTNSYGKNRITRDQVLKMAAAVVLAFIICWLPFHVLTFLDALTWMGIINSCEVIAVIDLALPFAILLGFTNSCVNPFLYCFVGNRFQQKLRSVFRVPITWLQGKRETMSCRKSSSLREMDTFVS

B2 bradykinin receptor = B2 bradykinin receptor (Rattus norvegicus, UniProt P25023)
[11] = biological target: Choline O-acetyltransferase (Rattus norvegicus, UniProt P32738)
Choline O-acetyltransferase, sequence (P32738 whole entry): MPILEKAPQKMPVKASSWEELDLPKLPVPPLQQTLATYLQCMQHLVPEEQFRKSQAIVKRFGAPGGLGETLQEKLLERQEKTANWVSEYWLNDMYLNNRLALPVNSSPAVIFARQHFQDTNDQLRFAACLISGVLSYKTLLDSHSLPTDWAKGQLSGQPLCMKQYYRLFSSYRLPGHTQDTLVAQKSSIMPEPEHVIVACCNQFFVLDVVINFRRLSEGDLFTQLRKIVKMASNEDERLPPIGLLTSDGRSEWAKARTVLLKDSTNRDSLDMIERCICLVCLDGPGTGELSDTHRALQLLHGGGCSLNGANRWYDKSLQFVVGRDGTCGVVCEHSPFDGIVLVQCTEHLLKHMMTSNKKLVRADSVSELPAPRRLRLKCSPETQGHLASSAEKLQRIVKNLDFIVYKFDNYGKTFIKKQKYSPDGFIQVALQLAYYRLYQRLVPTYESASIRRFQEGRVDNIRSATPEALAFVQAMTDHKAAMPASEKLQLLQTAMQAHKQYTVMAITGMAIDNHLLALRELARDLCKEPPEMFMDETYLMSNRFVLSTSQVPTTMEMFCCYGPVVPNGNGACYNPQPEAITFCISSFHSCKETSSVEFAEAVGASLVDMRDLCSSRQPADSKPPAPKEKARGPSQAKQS

[12] = biological target: Muscarinic acetylcholine receptor M2 (Rattus norvegicus, UniProt P10980)
Muscarinic acetylcholine receptor M2, sequence (P10980 whole entry): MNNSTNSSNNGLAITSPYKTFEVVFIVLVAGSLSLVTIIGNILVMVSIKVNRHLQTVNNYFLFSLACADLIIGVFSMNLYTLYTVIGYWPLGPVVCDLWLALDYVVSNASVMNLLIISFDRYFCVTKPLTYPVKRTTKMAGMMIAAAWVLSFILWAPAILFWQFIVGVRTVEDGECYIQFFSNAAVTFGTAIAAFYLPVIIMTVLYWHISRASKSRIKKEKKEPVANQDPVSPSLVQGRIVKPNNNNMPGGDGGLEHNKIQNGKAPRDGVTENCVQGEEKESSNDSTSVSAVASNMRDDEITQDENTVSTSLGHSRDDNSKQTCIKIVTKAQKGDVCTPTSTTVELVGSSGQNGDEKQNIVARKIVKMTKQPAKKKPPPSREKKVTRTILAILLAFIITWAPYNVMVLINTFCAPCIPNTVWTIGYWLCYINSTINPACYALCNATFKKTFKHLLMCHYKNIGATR

[13] = biological target: Muscarinic acetylcholine receptor M1 (Rattus norvegicus, UniProt P08482)
D(1A) dopamine receptor = D(1A) dopamine receptor (Rattus norvegicus, UniProt P18901)
Endothelin-1 receptor = Endothelin-1 receptor (Rattus norvegicus, UniProt P26684)
Endothelin-1 receptor, sequence (P26684 whole entry): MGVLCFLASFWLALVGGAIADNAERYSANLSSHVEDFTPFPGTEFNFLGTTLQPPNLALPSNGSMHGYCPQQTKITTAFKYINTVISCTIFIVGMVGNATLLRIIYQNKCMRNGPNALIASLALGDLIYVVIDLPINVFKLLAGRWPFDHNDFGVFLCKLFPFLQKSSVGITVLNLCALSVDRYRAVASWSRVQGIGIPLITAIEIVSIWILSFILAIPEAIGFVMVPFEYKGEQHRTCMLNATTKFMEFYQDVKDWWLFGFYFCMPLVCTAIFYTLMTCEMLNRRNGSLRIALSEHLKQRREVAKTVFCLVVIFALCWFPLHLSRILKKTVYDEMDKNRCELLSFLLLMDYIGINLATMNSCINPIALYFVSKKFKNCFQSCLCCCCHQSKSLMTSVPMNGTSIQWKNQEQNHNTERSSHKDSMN

Estrogen receptor = Estrogen receptor (Rattus norvegicus, UniProt P06211)
Estrogen receptor, sequence (P06211 whole entry): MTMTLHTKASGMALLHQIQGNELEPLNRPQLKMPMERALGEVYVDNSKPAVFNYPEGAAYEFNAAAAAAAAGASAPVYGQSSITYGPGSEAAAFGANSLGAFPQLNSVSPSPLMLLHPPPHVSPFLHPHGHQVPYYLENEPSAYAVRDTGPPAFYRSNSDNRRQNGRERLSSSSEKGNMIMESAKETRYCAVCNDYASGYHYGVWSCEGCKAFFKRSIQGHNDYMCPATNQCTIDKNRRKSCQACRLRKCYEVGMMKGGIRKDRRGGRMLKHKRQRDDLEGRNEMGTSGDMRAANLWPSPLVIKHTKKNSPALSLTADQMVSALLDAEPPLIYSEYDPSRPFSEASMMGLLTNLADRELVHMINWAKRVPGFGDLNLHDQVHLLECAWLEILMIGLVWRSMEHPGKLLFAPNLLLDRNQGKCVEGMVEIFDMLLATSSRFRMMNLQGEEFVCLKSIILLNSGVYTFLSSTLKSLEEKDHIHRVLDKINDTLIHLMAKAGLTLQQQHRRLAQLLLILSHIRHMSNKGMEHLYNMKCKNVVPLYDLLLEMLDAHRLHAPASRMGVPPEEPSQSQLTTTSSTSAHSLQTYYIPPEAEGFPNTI

[14] = biological target: Glutamate receptor ionotropic, kainate 1 (Rattus norvegicus, UniProt P22756)
[15] = biological target: Glutamate decarboxylase 2 (Rattus norvegicus, UniProt Q05683)
[16] = biological target: Glycine receptor subunit alpha-1 (Rattus norvegicus, UniProt P07727)
Histamine H2 receptor = Histamine H2 receptor (Rattus norvegicus, UniProt P25102)
Hrh3 protein = Hrh3 protein (Rattus norvegicus, UniProt Q5PPG3)
[17] = biological target: Leukotriene B4 receptor 1 (Rattus norvegicus, UniProt Q9R0Q2)
[18] = biological target: Cysteinyl leukotriene receptor 1 (Rattus norvegicus, UniProt Q924T8)
[19] = biological target: Melatonin receptor type 1A (Rattus norvegicus, UniProt P49218)
Melatonin receptor type 1A, sequence (P49218 whole entry): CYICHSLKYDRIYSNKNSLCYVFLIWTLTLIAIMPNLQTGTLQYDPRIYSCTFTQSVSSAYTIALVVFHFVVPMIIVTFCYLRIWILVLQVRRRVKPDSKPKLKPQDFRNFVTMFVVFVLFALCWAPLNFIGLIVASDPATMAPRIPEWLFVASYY

[20] = biological target: Nicotinic acetylcholine receptor (Rattus leucopus, UniProt Q62594)
Nicotinic acetylcholine receptor, sequence (Q62594 whole entry): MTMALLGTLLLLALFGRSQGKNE

Substance-K receptor = Substance-K receptor (Rattus norvegicus, UniProt P16610)
[21] = biological target: Norepinephrine transporter (Rattus norvegicus, UniProt Q9JIA2)
Oxytocin receptor = Oxytocin receptor (Rattus norvegicus, UniProt P70536)
[22] = biological target: Platelet-activating factor receptor (Rattus norvegicus, UniProt P46002)
[23] = biological target: Small conductance calcium-activated potassium channel protein 1 (Rattus norvegicus, UniProt P70606)
Small conductance calcium-activated potassium channel protein 1, sequence (P70606 whole entry): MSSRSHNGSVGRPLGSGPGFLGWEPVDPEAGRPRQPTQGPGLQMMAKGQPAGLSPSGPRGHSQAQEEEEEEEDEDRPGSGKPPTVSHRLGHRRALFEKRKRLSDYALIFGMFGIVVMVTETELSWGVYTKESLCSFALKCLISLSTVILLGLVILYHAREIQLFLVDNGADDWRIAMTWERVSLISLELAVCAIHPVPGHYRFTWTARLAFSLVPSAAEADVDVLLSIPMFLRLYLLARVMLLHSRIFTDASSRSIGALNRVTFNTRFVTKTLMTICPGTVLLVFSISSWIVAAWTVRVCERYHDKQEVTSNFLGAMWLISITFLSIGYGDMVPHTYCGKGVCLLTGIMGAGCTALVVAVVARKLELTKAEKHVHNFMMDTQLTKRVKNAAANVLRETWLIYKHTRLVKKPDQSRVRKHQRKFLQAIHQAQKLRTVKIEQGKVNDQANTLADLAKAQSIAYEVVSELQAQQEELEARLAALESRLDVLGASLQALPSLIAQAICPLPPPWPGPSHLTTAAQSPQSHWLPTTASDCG

Thromboxane A2 receptor = Thromboxane A2 receptor (Rattus norvegicus, UniProt P34978)
Thromboxane A2 receptor, sequence (P34978 whole entry): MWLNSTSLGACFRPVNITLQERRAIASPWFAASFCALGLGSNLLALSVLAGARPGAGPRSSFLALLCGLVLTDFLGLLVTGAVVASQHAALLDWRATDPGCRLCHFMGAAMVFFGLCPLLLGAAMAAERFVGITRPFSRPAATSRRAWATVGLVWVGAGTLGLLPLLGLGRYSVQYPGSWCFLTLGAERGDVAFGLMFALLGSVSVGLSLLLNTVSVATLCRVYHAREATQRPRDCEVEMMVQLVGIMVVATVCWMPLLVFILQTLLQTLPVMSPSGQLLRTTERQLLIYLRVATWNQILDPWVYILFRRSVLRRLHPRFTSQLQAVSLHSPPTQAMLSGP

[24] = biological target: Sodium channel protein type 1 subunit alpha (Rattus norvegicus, UniProt P04774)
[25] = biological target: Sodium channel protein type 2 subunit alpha (Rattus norvegicus, UniProt P04775)
[26] = biological target: Beta-2 adrenergic receptor (Rattus norvegicus, UniProt P10608)
Beta-2 adrenergic receptor, sequence (P10608 whole entry): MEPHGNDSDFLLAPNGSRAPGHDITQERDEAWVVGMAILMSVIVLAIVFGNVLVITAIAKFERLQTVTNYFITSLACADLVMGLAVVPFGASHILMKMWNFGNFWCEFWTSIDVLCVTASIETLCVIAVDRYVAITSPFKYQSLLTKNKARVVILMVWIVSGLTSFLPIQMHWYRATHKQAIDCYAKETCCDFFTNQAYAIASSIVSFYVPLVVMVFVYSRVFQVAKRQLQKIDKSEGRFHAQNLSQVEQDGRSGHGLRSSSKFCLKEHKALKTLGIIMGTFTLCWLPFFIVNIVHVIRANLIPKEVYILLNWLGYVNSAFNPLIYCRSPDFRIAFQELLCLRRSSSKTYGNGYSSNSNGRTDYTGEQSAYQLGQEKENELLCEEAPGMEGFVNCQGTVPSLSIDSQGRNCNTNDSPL

[27] = biological target: Corticotropin releasing factor receptor (Rattus norvegicus) (UniProt P35353)
[28] = biological target: Androgen receptor (Rattus norvegicus) (UniProt P15207)
Androgen receptor (Rattus norvegicus), sequence (P15207 whole entry, looked up): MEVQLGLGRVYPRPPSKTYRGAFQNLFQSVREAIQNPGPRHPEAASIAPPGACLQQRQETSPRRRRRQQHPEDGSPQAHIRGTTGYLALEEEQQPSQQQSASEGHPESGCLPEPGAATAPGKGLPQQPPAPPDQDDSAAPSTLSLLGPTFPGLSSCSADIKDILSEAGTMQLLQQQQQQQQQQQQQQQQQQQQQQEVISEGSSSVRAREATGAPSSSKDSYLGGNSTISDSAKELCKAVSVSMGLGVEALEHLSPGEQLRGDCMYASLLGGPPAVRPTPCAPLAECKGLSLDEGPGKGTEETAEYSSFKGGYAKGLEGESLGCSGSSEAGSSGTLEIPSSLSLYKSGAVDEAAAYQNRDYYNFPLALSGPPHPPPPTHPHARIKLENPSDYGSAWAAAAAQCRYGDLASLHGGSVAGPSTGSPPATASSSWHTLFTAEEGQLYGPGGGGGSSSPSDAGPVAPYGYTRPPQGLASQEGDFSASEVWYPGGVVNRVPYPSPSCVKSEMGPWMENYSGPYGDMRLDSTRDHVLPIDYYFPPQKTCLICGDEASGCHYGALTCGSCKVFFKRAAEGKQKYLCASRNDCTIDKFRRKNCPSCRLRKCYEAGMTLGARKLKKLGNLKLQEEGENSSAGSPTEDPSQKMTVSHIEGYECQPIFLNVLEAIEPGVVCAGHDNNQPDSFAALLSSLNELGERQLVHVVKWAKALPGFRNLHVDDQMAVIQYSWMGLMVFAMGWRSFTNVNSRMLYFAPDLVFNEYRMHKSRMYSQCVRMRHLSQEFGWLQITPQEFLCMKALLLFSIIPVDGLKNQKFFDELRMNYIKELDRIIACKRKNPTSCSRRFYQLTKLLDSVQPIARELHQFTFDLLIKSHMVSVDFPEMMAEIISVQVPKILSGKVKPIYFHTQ

[29] = biological target: Thyrotropin-releasing hormone receptor (Rattus norvegicus) (UniProt Q01717)
[30] = biological target: Vasopressin V1a receptor (Rattus norvegicus) (UniProt P30560)

Measured: Ki

CC(C)(C)c1ccc(NC(=O)N2CCN(c3ncccc3Cl)CC2)cc1 [BCTC]
> 10 µM: [1] | Substance-P receptor | [2] | [3] | [4] | [5] | [6] | [7] | [8] | [9] | [10] | B2 bradykinin receptor | [11] | [12] | [13] | D(1A) dopamine receptor | Endothelin-1 receptor | Estrogen receptor | [14] | [15] | [16] | Histamine H2 receptor | Hrh3 protein | [17] | [18] | [19] | [20] | Substance-K receptor | [21] | Oxytocin receptor | [22] | [23] | Thromboxane A2 receptor | [24] | [25] | [26] | [27] | [28] | [29] | [30]
